The values that follow come from patent US10329294B2, “Pyrazolopyrimidine inhibitors of IRAK4 activity” (MERCK SHARP & DOHME CORP., priority 2015, dated 2019).

The structures appear in SMILES notation. Where a name gives a salt, the structure may show the parent alone.

One may read the IC50 as the midpoint of a concentration-inhibition curve.

This test concerns the target IRAK4 (Homo sapiens (Human), UniProt Q9NWZ3). The test is described as follows: IRAK4 Kinase Assay. In kind it is biochemical. As to conditions: IMAP fluorescence polarization, 0.5 nM GST tagged IRAK4, 100 μM ATP, 30 minutes at 25° C.; read-out: IRAK4 IC50.

Sequence of IRAK4 (Q9NWZ3 whole entry): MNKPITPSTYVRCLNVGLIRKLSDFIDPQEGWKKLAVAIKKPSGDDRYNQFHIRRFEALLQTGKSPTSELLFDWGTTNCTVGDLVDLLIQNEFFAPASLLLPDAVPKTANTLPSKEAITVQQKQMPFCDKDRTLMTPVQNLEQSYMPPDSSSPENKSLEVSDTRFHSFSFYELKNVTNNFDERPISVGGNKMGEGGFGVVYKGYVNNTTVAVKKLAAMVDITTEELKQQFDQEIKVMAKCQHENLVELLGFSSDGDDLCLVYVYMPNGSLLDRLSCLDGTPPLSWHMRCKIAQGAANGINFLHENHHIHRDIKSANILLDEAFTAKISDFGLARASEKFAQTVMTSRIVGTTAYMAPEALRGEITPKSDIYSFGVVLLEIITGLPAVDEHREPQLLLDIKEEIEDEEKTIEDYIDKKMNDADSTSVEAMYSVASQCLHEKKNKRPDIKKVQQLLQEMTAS

With `N[C@H]1CCCC[C@H]1Nc1ccn2ncc(C(=O)Nc3ccncc3C(F)(F)F)c2n1` [Example 31, 5-{[(1R,2S)-2-aminocyclohexyl]amino}-N-[3-(trifluoromethyl)pyridin-4-yl]pyrazolo[1,5-a]pyrimidine-3-carboxamide formate], the half-maximal inhibitory concentration (IC50) turned out to be 4 nM.

As for `COCCc1nn(C)cc1NC(=O)c1cnn2ccc(N[C@@H]3CCCC[C@@H]3N)nc12` [Example 283, 5-{[(1R,2S)-2-aminocyclohexyl]amino}-N-[3-(2-methoxyethyl)-1-methyl-1H-pyrazol-4-yl]pyrazolo[1,5-a]pyrimidine-3-carboxamide trifluoroacetate], the IC50 was found to be 76 nM.

On to `Cn1cc(NC(=O)c2cnn3ccc(NC4CNCC(F)(F)C4)nc23)c(C(F)(F)F)n1` (stereo not shown) [Example 217, 5-[(5,5-difluoropiperidin-3-yl)amino]-N-[1-methyl-3-(trifluoromethyl)-1H-pyrazol-4-yl]pyrazolo[1,5-a]pyrimidine-3-carboxamide], for which the IC50 turned out to be 47 nM.

As to `Cn1cc(NC(=O)c2cnn3ccc(N[C@H]4CNCC[C@H]4F)nc23)c(C(F)(F)F)n1` (single isomer, unassigned) [Example 231, 5-{[(3R,4S)- or (3S,4R)-4-fluoropiperidin-3-yl]amino}-N-[1-methyl-3-(trifluoromethyl)-1H-pyrazol-4-yl]pyrazolo[1,5-a]pyrimidine-3-carboxamide], the half-maximal inhibitory concentration (IC50) is 47 nM.

In the case of `N#Cc1sccc1NC(=O)c1cnn2ccc(N[C@@H]3CCCC[C@@H]3N)nc12` [Example 42, 5-{[(1R,2S)-2-aminocyclohexyl]amino}-N-(2-cyanothiophen-3-yl)pyrazolo[1,5-a]pyrimidine-3-carboxamide trifluoroacetate], the 50% inhibitory concentration (IC50) is 0.9 nM.

For `O=C(Nc1ccccc1C(F)F)c1cnn2ccc(N3CCCNCC3)nc12` [Example 130, 5-(1,4-diazepan-1-yl)-N-[2-(difluoromethyl)phenyl] pyrazolo[1,5-a]pyrimidine-3-carboxamide], the IC50 stood at 8810 nM.

Consider `N[C@H]1CCCC[C@H]1Nc1ccn2ncc(C(=O)Nc3ccsc3Br)c2n1` [Example 129, 5-{[(1R,2S)-2-aminocyclohexyl]amino}-N-(2-bromothiophen-3-yl)pyrazolo[1,5-a]pyrimidine-3-carboxamide trifluoroacetate], for which the half-maximal inhibitory concentration (IC50) turned out to be 2 nM.

As for `Cn1cc(NC(=O)c2cnn3ccc(N[C@@H]4CCCC[C@@H]4N)nc23)c(Br)n1` [Example 138, 5-{[(1R,2S)-2-aminocyclohexyl]amino}-N-(3-bromo-1-methyl-1H-pyrazol-4-yl)pyrazolo[1,5-a]pyrimidine-3-carboxamide trifluoroacetate], the IC50 was found to be 0.3 nM.

`Cn1cc(NC(=O)c2cnn3ccc(N4CCCNCC4)nc23)c(C(F)(F)F)n1` [Example 8, 5-(1,4-diazepan-1-yl)-N-[1-methyl-3-(trifluoromethyl)-1H-pyrazol-4-yl]pyrazolo[1,5-a]pyrimidine-3-carboxamide trifluoroacetate]: the IC50 was found to be 66 nM.

As for `Cn1cc(NC(=O)c2cnn3ccc(N4C[C@H]5CC[C@@H]4CN5)nc23)c(Br)n1` (single isomer, unassigned) [Example 165, N-(3-bromo-1-methyl-1H-pyrazol-4-yl)-5-[(1S,4S)- or (1R,4R)-2,5-diazabicyclo[2.2.2]oct-2-yl]pyrazolo[1,5-a]pyrimidine-3-carboxamide trifluoroacetate], the half-inhibitory concentration (IC50) is 19 nM.

With `Cn1cc(NC(=O)c2cnn3ccc(N4CCNC(C5CC5)C4)nc23)c(C(F)(F)F)n1` (stereo not shown) [Example 28, 5-(3-cyclopropylpiperazin-1-yl)-N-[1-methyl-3-(trifluoromethyl)-1H-pyrazol-4-yl]pyrazolo[1,5-a]pyrimidine-3-carboxamide trifluoroacetate], the half-inhibitory concentration (IC50) amounted to 72 nM.

Consider `O=C(Nc1ccsc1Br)c1cnn2ccc(N3CCCNCC3)nc12` [Example 127, N-(2-bromothiophen-3-yl)-5-(1,4-diazepan-1-yl)pyrazolo[1,5-a]pyrimidine-3-carboxamide trifluoroacetate], for which the IC50 stood at 419 nM.

For `Cn1cc(NC(=O)c2cnn3ccc(NC4CCCNCC4)nc23)c(C(F)(F)F)n1` (stereo not shown) [Example 17, 5-(azepan-4-ylamino)-N-[1-methyl-3-(trifluoromethyl)-1H-pyrazol-4-yl]pyrazolo[1,5-a]pyrimidine-3-carboxamide hydrochloride], the IC50 stood at 14 nM.

As to `N[C@H]1CCCC[C@H]1Nc1ccn2ncc(C(=O)Nc3csc(CO)c3)c2n1` [Example 275, 5-(((1R,2S)-2-Aminocyclohexyl)amino)-N-(5-(hydroxymethyl)thiophen-3-yl)pyrazolo[1,5-a]pyrimidine-3-carboxamide], the IC50 came out at 17 nM.

Regarding `O=C(Nc1cn(C(F)F)nc1C(F)(F)F)c1cnn2ccc(N3CCNCC3)nc12` [Example 300, N-[1-(difluoromethyl)-3-(trifluoromethyl)-1H-pyrazol-4-yl]-5-piperazin-1-ylpyrazolo[1,5-a]pyrimidine-3-carboxamide trifluoroacetate], the IC50 was found to be 55 nM.

For the compound `N[C@@H]1[C@H](Nc2ccn3ncc(C(=O)Nc4ccccc4Cl)c3n2)CCCC1(F)F` [Example 106, 5-{[(1R,2R)-2-amino-3,3-difluorocyclohexyl]amino}-N-(2-chlorophenyl)pyrazolo[1,5-a]pyrimidine-3-carboxamide trifluoroacetate], the 50% inhibitory concentration (IC50) was 788 nM.

For `Cn1cc(NC(=O)c2cnn3ccc(N4CC[C@H]5CC[C@@H](C4)N5)nc23)c(C(F)(F)F)n1` (single isomer, unassigned) [Example 89, 5-[(1R,6S)- or (1S,6R)-3,9-diazabicyclo[4.2.1]non-3-yl]-N-[1-methyl-3-(trifluoromethyl)-1H-pyrazol-4-yl]pyrazolo[1,5-a]pyrimidine-3-carboxamide trifluoroacetate], the IC50 was 270 nM.

`Cn1cc(NC(=O)c2cnn3ccc(N4C[C@H]5CN[C@H](C5)C4)nc23)c(C(F)F)n1` (single isomer, unassigned) [Example 184, 5-[(1S,5S)- or (1R,5R)-3,6-diazabicyclo[3.2.1]oct-3-yl]-N-[3-(difluoromethyl)-1-methyl-1H-pyrazol-4-yl]pyrazolo[1,5-a]pyrimidine-3-carboxamide trifluoroacetate]: the IC50 was 47 nM.

Consider `O=C(Nc1cscc1Br)c1cnn2ccc(N3CC4CCC3CN4)nc12` (stereo not shown) [Example 124, N-(4-bromothiophen-3-yl)-5-(2,5-diazabicyclo[2.2.2]oct-2-yl)pyrazolo[1,5-a]pyrimidine-3-carboxamide trifluoroacetate], for which the IC50 turned out to be 245 nM.

Turning to `N[C@@H]1[C@H](Nc2ccn3ncc(C(=O)Nc4cn(C(F)F)nc4C(F)(F)F)c3n2)CCCC1(F)F` [Example 71, 5-{[(1R,2R)-2-amino-3,3-difluorocyclohexyl]amino}-N-[1-(difluoromethyl)-3-(trifluoromethyl)-1H-pyrazol-4-yl]pyrazolo[1,5-a]pyrimidine-3-carboxamide trifluoroacetate], the IC50 is 328 nM.

Regarding `Cn1cc(NC(=O)c2cnn3ccc(NC4CNCCC4F)nc23)c(C(F)F)n1` (single isomer, unassigned) [Example 241, N-[3-(difluoromethyl)-1-methyl-1H-pyrazol-4-yl]-5-[(3R or S, 4R or S-4-fluoropiperidin-3-yl)amino]pyrazolo[1,5-a]pyrimidine-3-carboxamide], the IC50 stood at 3 nM.

As for `Cn1cc(NC(=O)c2cnn3ccc(N4[C@H]5CCNC[C@@H]4CC5)nc23)c(C(F)(F)F)n1` (single isomer, unassigned) [Example 222, 5-[(1R,6S)- or (1S,6R)-3,9-diazabicyclo[4.2.1]non-9-yl]-N-[1-methyl-3-(trifluoromethyl)-1H-pyrazol-4-yl]pyrazolo[1,5-a]pyrimidine-3-carboxamide trifluoroacetate], the IC50 was 168 nM.

For `CC(C)n1cc(NC(=O)c2cnn3ccc(N[C@@H]4CCCC[C@@H]4N)nc23)c(C(F)(F)F)n1` [Example 291, 5-{[(1R,2S)-2-aminocyclohexyl]amino}-N-[1-(1-methylethyl)-3-(trifluoromethyl)-1H-pyrazol-4-yl]pyrazolo[1,5-a]pyrimidine-3-carboxamide trifluoroacetate], the 50% inhibitory concentration (IC50) was 0.8 nM.

As to `CC(C)(C)n1cc(NC(=O)c2cnn3ccc(N[C@@H]4CCCC[C@@H]4O)nc23)c(C(F)(F)F)n1` [Example 48, N-[1-tert-butyl-3-(trifluoromethyl)-1H-pyrazol-4-yl]-5-{[(1R,2S)-2-hydroxycyclohexyl]amino} pyrazolo[1,5-a]pyrimidine-3-carboxamide trifluoroacetate], the IC50 turned out to be 259 nM.

Turning to `O=C(Nc1cn(CC(F)(F)F)nc1C(F)(F)F)c1cnn2ccc(N3CCNCC3)nc12` [Example 299, 5-piperazin-1-yl-N-[1-(2,2,2-trifluoroethyl)-3-(trifluoromethyl)-1H-pyrazol-4-yl]pyrazolo[1,5-a]pyrimidine-3-carboxamide trifluoroacetate], the IC50 was 81 nM.

Regarding `Cn1cc(NC(=O)c2cnn3ccc(N4CCC(F)(F)[C@H](N)C4)nc23)c(C(F)(F)F)n1` (single isomer, unassigned) [Example 192, 5-[(4R)- or (4S)-(3-amino-4,4-difluoropiperidin-1-yl)-N-[1-methyl-3-(trifluoroemthyl)-1H-pyrazol-4-yl]pyrazolo[1,5-a]pyrimidine-3-carboxamide trifluoroacetate], the IC50 came to 23 nM.

`Cn1ncc(NC(=O)c2cnn3ccc(N[C@@H]4CCCC[C@@H]4N)nc23)c1C(F)(F)F` [Example 166, 5-{[(1R,2S)-2-aminocyclohexyl]amino}-N-[1-methyl-5-(trifluoromethyl)-1H-pyrazol-4-yl]pyrazolo[1,5-a]pyrimidine-3-carboxamide trifluoroacetate]: the IC50 turned out to be 15 nM.

With `Cn1cc(NC(=O)c2cnn3ccc(N4CCCNCC4)nc23)c(Br)n1` [Example 137, N-(3-bromo-1-methyl-1H-pyrazol-4-yl)-5-(1,4-diazepan-1-yl)pyrazolo[1,5-a]pyrimidine-3-carboxamide trifluoroacetate], the IC50 was 72 nM.
